Measured values reported in patent EP4684784A1, “ANTI-INFLAMMATORY COSMETIC COMPOSITION” (LG Chem, Ltd., priority 2023, dated 2025).

System: Mouse macrophages
Test: Evaluation of reactive nitrogen species inhibiting ability (nitric oxide production, Griess reagent, LPS-treated macrophages)
Assay type: cell-based
Details: for Nitrogen oxide concentration, Average / Nitrogen oxide concentration, Once / Nitrogen oxide concentration, Two times / Nitrogen oxide concentration, Three times: LPS 1 µg/ml, cultured 24 hours; for Nitrogen oxide concentration, Average: average of three; for Nitrogen oxide concentration, Once: replicate 1; for Nitrogen oxide concentration, Two times: replicate 2; for Nitrogen oxide concentration, Three times: replicate 3
Method: Mouse macrophages were divided into 1X10^6 cells in a 6-well plate and cultured for 24 hours, then treated with LPS (Lipopolysaccharide, concentration 1 µg/ml) solution, and treated with the 3-hydroxypropionic acid aqueous solution according to Preparation Example 1 at four concentrations (3HP concentration: 0 wt.%, 0.0125 wt.%, 0.025 wt.%, 0.05 wt.%), and then cultured again for 24 hours. Only the medium was then separated and centrifuged for 10 minutes to collect only the supernatant. The supernatant was mixed with Griess reagent (Sigma-Aldrich) reagent in a 1:1 ratio and reacted at room temperature, and then the absorbance (OD, wavelength 540 nm) was measured using a microplate reader. The measured value was substituted into the regression equation obtained from the standard curve prepared by reacting Griess reagent (Sigma-Aldrich) and NaNO2 in a 1:1 ratio to calculate the amount of nitric oxide(NO) produced. Here, the case in which neither the LPS solution nor the 3HP aqueous solution was treated was performed as a negative control group.

O=C(O)CCO [Example 3HP, 3-hydroxypropionic acid]
Nitrogen oxide concentration, Average (3HP concentration 0.0125 wt.%): 64.949 µM
Nitrogen oxide concentration, Once (3HP concentration 0.0125 wt.%): 63.956 µM
Nitrogen oxide concentration, Two times (3HP concentration 0.0125 wt.%): 64.800 µM
Nitrogen oxide concentration, Three times (3HP concentration 0.0125 wt.%): 66.093 µM
Nitrogen oxide concentration, Average (3HP concentration 0.025 wt.%): 64.774 µM
Nitrogen oxide concentration, Once (3HP concentration 0.025 wt.%): 63.138 µM
Nitrogen oxide concentration, Two times (3HP concentration 0.025 wt.%): 65.222 µM
Nitrogen oxide concentration, Three times (3HP concentration 0.025 wt.%): 65.961 µM
Nitrogen oxide concentration, Average (3HP concentration 0.05 wt.%): 56.630 µM
Nitrogen oxide concentration, Once (3HP concentration 0.05 wt.%): 56.146 µM
Nitrogen oxide concentration, Two times (3HP concentration 0.05 wt.%): 56.357 µM
Nitrogen oxide concentration, Three times (3HP concentration 0.05 wt.%): 57.386 µM
inhibiting the production of reactive nitrogen species (under the treatment concentrations 0.0125 to 0.05 wt.%, result in words): effect of inhibiting the production of reactive nitrogen species was exhibited
